Patent US20090221603A1, “HETEROCYCLIC AMIDE DERIVATIVES AS CALCIUM CHANNEL BLOCKERS” (priority 2005, published 2009)
Like-named read-outs stand apart in the source and are kept apart here.

Target: T1, rat brain N-type calcium channel subunits (α1B+α2δ+β1b cDNA subunits) (Rattus norvegicus, UniProt Q02294)
T1 construct: expressed in transfected cells; host or cells: HEK 293 (stably, alternatively transiently, transfected)
Experiment: N-type calcium channel block, whole cell patch clamp in HEK 293 cells
Type: cell-based
Conditions: holding potential −80 mV to +10 mV
Protocol: A. Transformation of HEK Cells: • N-type calcium channel blocking activity was assayed in human embryonic kidney cells, HEK 293, stably transfected with the rat brain N-type calcium channel subunits (α1B+α2δ+β1b cDNA subunits). Alternatively, N-type calcium channels (α1B+α2δ+β1b cDNA subunits), L-type channels (α1C+α2δ+β1b cDNA subunits) and P/Q-type channels (α1A+α2δ+β1b cDNA subunits) were transiently expressed in HEK 293 cells. Briefly, cells were cultured in Dulbecco's modified eagle medium (DMEM) supplemented with 10% fetal bovine serum, 200 U/ml penicillin and 0.2 mg/ml streptomycin at 37° C. with 5% CO2. At 85% confluency cells were split with 0.25% trypsin/1 mM EDTA and plated at 10% confluency on glass coverslips. At 12 hours the medium was replaced and the cells transiently transfected using a standard calcium phosphate protocol and the appropriate calcium channel cDNA's. Fresh DMEM was supplied and the cells transferred to 28° C./5% CO2. Cells were incubated for 1 to 2 days prior to whole cell recording.
B. Measurement of Inhibition
Whole cell patch clamp experiments were performed using an Axopatch 200B amplifier (Axon Instruments, Burlingame, Calif.) linked to a personal computer equipped with pCLAMP software. The external and internal recording solutions contained, respectively, 5 mM BaCl2, 10 mM MgCl2, 10 mM HEPES, 40 mM TEACl, 10 mM glucose, 87.5 mM CsCl (pH 7.2) and 108 mM CsMS, 4 mM MgCl2, 9 mM EGTA, 9 mM HEPES (pH 7.2). Currents were typically elicited from a holding potential of −80 mV to +10 mV using Clampex software (Axon Instruments). Typically, currents were first elicited with low frequency stimulation (0.067 Hz) and allowed to stabilize prior to application of the compounds. The compounds were then applied during the low frequency pulse trains for two to three minutes to assess tonic block, and subsequently the pulse frequency was increased to 0.2 Hz to assess frequency dependent block. Data were analyzed using Clampfit (Axon Instruments) and SigmaPlot 4.0 (Jandel Scientific).

[1] = low frequency stimulation 0.067 Hz (tonic block), read-out: IC50 @ 0.067 Hz
[2] = pulse frequency 0.2 Hz (frequency dependent block), read-out: IC50 @ 0.2 Hz

T1 sequence (Q02294 whole entry): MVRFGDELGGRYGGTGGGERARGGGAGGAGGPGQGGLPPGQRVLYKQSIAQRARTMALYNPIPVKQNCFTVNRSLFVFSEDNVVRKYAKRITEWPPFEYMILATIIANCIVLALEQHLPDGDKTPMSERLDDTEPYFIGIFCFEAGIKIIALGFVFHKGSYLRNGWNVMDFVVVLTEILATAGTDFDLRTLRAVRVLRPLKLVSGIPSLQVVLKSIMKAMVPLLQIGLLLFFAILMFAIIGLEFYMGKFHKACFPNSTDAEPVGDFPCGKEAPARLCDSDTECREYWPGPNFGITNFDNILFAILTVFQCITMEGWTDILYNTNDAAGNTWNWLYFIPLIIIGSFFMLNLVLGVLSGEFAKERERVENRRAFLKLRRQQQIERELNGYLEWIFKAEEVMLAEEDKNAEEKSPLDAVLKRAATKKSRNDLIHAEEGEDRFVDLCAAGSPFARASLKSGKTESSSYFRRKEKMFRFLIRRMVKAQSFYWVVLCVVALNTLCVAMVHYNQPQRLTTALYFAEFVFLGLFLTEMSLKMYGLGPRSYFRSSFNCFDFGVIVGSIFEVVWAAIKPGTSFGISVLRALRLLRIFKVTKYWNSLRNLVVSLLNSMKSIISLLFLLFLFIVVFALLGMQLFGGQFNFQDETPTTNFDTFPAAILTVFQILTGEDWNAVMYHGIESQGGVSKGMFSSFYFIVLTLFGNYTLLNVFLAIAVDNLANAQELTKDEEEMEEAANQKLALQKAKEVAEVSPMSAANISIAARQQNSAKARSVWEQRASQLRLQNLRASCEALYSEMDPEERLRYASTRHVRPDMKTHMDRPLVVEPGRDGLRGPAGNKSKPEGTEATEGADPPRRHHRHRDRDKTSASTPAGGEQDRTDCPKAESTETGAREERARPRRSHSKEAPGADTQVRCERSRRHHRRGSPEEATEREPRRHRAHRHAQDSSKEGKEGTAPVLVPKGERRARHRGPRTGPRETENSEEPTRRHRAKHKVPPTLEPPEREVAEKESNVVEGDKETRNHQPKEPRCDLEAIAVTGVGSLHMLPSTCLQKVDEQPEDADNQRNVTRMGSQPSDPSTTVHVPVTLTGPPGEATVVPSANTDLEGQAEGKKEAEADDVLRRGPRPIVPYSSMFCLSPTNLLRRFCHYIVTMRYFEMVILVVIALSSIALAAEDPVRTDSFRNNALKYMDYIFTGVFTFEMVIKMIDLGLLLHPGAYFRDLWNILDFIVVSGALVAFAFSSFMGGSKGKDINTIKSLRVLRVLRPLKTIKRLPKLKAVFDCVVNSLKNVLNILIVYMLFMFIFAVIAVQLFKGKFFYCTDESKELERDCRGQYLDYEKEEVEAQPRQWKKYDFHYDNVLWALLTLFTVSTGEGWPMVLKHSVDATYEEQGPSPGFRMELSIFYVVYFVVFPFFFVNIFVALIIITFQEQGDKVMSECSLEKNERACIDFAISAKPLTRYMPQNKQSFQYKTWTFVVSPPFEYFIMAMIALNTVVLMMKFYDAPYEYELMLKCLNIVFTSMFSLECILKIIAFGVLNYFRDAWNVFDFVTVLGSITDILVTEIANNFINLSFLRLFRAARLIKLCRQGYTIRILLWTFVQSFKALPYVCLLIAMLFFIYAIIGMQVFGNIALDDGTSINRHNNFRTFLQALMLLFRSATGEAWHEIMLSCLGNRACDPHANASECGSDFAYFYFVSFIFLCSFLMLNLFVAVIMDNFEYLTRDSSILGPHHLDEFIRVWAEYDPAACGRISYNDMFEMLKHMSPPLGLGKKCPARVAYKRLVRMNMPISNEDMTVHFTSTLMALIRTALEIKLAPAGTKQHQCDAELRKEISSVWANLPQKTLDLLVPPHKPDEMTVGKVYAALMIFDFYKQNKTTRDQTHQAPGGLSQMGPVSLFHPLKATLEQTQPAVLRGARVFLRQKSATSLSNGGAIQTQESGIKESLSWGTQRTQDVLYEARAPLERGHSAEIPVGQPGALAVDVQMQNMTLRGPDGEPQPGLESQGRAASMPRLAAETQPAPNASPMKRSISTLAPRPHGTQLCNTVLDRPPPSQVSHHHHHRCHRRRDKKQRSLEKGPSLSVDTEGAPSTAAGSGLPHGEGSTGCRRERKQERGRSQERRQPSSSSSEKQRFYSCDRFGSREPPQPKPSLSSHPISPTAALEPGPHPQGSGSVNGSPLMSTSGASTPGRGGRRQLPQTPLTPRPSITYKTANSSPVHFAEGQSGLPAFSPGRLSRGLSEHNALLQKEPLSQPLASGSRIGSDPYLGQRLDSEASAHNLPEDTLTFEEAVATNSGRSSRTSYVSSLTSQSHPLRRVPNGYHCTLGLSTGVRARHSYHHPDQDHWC
T1 sequence (P54290 25-944 partner limits assumed): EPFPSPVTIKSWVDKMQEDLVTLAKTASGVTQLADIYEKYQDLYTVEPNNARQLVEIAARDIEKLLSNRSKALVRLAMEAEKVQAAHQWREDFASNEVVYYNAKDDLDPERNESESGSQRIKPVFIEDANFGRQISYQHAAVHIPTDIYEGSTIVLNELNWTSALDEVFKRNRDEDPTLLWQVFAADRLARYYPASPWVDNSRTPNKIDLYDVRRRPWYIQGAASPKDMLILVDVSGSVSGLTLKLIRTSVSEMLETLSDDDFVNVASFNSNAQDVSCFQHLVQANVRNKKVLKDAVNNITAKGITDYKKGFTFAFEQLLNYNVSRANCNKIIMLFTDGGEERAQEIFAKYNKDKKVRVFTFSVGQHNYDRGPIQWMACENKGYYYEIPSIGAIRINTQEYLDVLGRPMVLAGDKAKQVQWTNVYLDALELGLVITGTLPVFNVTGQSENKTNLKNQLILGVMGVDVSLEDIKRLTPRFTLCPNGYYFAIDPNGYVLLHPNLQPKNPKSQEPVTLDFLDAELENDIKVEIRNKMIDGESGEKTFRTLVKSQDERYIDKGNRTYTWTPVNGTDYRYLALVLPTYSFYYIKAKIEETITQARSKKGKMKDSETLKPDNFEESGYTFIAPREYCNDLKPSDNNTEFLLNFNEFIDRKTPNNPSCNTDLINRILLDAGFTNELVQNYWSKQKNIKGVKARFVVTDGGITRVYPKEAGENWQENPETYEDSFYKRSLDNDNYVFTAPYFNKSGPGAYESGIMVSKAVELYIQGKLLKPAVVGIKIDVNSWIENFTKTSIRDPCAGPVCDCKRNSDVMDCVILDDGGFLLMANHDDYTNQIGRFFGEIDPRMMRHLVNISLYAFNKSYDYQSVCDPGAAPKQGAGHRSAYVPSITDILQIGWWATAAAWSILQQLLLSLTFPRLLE
T1 sequence (P54290 945-1091 partner limits assumed): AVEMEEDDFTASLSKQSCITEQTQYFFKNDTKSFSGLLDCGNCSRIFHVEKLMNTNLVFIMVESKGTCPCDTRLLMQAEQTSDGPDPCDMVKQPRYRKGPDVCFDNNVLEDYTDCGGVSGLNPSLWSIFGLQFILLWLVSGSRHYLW
T1 sequence (P54283 whole entry partner): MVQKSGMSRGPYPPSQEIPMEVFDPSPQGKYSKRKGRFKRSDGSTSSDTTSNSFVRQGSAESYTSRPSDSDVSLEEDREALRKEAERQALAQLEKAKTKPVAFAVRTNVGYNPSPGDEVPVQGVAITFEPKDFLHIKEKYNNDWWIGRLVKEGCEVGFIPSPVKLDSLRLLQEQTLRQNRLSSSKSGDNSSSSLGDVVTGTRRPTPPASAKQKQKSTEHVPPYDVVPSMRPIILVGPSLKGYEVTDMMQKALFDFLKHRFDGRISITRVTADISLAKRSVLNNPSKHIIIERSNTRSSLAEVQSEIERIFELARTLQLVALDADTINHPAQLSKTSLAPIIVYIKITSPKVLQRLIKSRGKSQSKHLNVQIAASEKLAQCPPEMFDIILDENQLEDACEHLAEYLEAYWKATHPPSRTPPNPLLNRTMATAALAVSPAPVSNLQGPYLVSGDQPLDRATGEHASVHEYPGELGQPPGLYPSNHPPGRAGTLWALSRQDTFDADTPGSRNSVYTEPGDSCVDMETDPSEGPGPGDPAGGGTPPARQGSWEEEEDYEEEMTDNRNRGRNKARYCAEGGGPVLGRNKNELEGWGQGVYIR

Structure (SMILES) | IC50 [1] [nM] | IC50 [2] [nM]
CN(CC(=O)N1CCN(C(c2ccccc2)c2ccc(Cl)cc2)CC1)C(c1ccccc1)c1ccccc1 (stereo not shown) [Compound 3, 2-benzhydryl(methyl)amino-1-(4-((4-chlorophenyl)(phenyl)methyl)piperazin-1-yl)ethanone] | 2450 | 850
CN(CC(=O)N1CCN(C(c2ccccc2)c2cccc(Cl)c2)CC1)C(c1ccccc1)c1ccccc1 (stereo not shown) [Compound 4, 2-benzhydryl(methyl)amino-1-(4-((3-chlorophenyl)(phenyl)methyl)piperazin-1-yl)ethanone] | 1240 | 840
CN(CC(=O)N1CCN(C(c2ccccc2)c2ccccc2Cl)CC1)C(c1ccccc1)c1ccccc1 (stereo not shown) [Compound 5, 2-benzhydryl(methyl)amino-1-(4-((2-chlorophenyl)(phenyl)methyl)piperazin-1-yl)ethanone] | > 4670 | > 2940
CN(CC(=O)N1CCN(C(c2ccccc2)c2cccc(C(F)(F)F)c2)CC1)C(c1ccccc1)c1ccccc1 (stereo not shown) [Compound 7] | 1460 | 670
CN1CCC(CN2CCN(C(=O)CNC(c3ccccc3)c3ccccc3)CC2)CC1 [Compound 9] | 4000 | 2500
CN1CCC(C(=O)N2CCN(C(=O)CNC(c3ccccc3)c3ccccc3)CC2)CC1 [Compound 10, 2-benzhydrylamino-1-(4-(1-methylpiperidine-4-carbonyl)piperazin-1-yl)ethanone] | > 4970 | > 2640
CN1CCC(C(=O)N2CCN(C(=O)CN(C)C(c3ccccc3)c3ccccc3)CC2)CC1 [Compound 11, 2-benzhydryl(methyl)amino-1-(4-(1-methylpiperidine-4-carbonyl)piperazin-1-yl)ethanone] | > 11800 | 7920
CN1CCC(CN2CCN(C(=O)CN(C)C(c3ccccc3)c3ccccc3)CC2)CC1 [Compound 12] | 7400 | 2070
CN1CCC(C(c2ccccc2)N2CCN(C(=O)CN(C)C(c3ccccc3)c3ccccc3)CC2)CC1 (stereo not shown) [Compound 14, 2-benzhydryl(methyl)amino-1-(4-((1-methylpiperidin-4-yl)(phenyl)methyl)piperazin-1-yl)ethanone] | 550 | 440
O=C(CNc1ccccc1)N1CCN(C(c2ccccc2)c2ccccc2)CC1 [Compound 16] | 4300 | 800
O=C(CNc1ccc(Cl)cc1)N1CCN(C(c2ccccc2)c2ccccc2)CC1 [Compound 17, 1-(4-benzhydrylpiperazin-1-yl)-2-(4-chlorophenylamino)ethanone] | > 7600 | > 4600
O=C(CNc1cccc(Cl)c1)N1CCN(C(c2ccccc2)c2ccccc2)CC1 [Compound 18, 1-(4-benzhydrylpiperazin-1-yl)-2-(3-chlorophenylamino)ethanone] | 1290 | 1030
O=C(CNc1cc(F)cc(F)c1)N1CCN(C(c2ccccc2)c2ccccc2)CC1 [Compound 21, 1-(4-benzhydrylpiperazin-1-yl)-2-(3,5-difluorophenylamino)ethanone] | 1400 | 700
O=C(CNc1cc(Cl)cc(Cl)c1)N1CCN(C(c2ccccc2)c2ccccc2)CC1 [Compound 22, 1-(4-benzhydrylpiperazin-1-yl)-2-(3,5-dichlorophenylamino)ethanone] | 2400 | 980
COc1cc(NCC(=O)N2CCN(C(c3ccccc3)c3ccccc3)CC2)cc(OC)c1OC [Compound 25, 1-(4-benzhydrylpiperazin-1-yl)-2-(3,4,5-trimethoxyphenylamino) ethanone] | 2300 | 1500
CC1CN(CC2CCOCC2)CC(C)N1C(=O)COC(c1ccccc1)c1ccccc1 (stereo not shown) [Compound 32, 2-(benzhydryloxy)-1-(2,6-dimethyl-4-((tetrahydro-2H-pyran-4-yl)methyl)piperazin-1-yl)ethanone] | 1000 | 640
CC1CN(CC2CCOCC2)CC(C)N1C(=O)C[S+]([O-])C(c1ccccc1)c1ccccc1 (stereo not shown) [Compound 34, 2-(benzhydrylsulfinyl)-1-(2,6-dimethyl-4-((tetrahydro-2H-pyran-4-yl)methyl)piperazin-1-yl)ethanone] | > 6600 | > 4700
O=C(COC(c1ccccc1)c1ccccc1)N1CCN(CC2CCOCC2)CC1 [Compound 35, 2-(benzhydryloxy)-1-(4-((tetrahydro-2H-pyran-4-yl)methyl)piperazin-1-yl)ethanone] | 8300 | 1300
O=C(CNC(c1ccccc1)c1ccccc1)N1CCN(CC2CCOCC2)CC1 [Compound 38, 2-(benzhydrylamino)-1-(4-((tetrahydro-2H-pyran-4-yl)methyl)piperazin-1-yl)ethanone] | 9530 | 4910
Cc1cc(CN2CCN(C(=O)COC(c3ccccc3)c3ccccc3)CC2)cc(Cl)n1 [Compound 40, 2-(benzhydryloxy)-1-(4-((2-chloro-6-methylpyridin-4-yl)methyl)piperazin-1-yl)ethanone] | 1200 | 740
CN1CCC(CN2CCN(C(=O)COC(c3ccccc3)c3ccccc3)CC2)CC1 [Compound 41, 2-(benzhydryloxy)-1-(4-((1-methylpiperidin-4-yl)methyl)piperazin-1-yl)ethanone] | > 4800 | > 3200
CN1CCC(CN2CCN(C(=O)C[S+]([O-])C(c3ccccc3)c3ccccc3)CC2)CC1 (stereo not shown) [Compound 43, 2-(benzhydrylsulfinyl)-1-(4-((1-methylpiperidin-4-yl)methyl)piperazin-1-yl)ethanone] | 4260 | 1340
O=C(CSC(c1ccccc1)c1ccccc1)N1CCN(C(c2ccccc2)c2ccccc2)CC1 [Compound 44, 1-(4-benzhydrylpiperazin-1-yl)-2-(benzhydrylthio)ethanone] | 600 | 270
O=C(C[S+]([O-])C(c1ccccc1)c1ccccc1)N1CCN(C(c2ccccc2)c2ccccc2)CC1 (stereo not shown) [Compound 45, 1-(4-benzhydrylpiperazin-1-yl)-2-(benzhydrylsulfinyl)ethanone] | 290 | 200
O=C(CSC(c1ccccc1)c1ccccc1)N1CCN(C(c2ccc(F)cc2)c2ccc(F)cc2)CC1 [Compound 47, 2-(benzhydrylthio)-1-(4-(bis(4-fluorophenyl)methyl)piperazin-1-yl)ethanone] | 4920 | 3230
O=C(COC(c1ccccc1)c1ccccc1)N1CCN(C(c2ccccc2)c2ccccc2)C(CO)C1 (stereo not shown) [Compound 50, 2-(benzhydryloxy)-1-(4-benzhydryl-3-hydroxymethylpiperazin-1-yl)ethanone] | 400 | 230
O=C(C[S+]([O-])C(c1ccccc1)c1ccccc1)N1CCN(C(c2ccccc2)c2ccccc2)C(CO)C1 (stereo not shown) [Compound 52, 1-(4-benzhydryl-3-hydroxymethylpiperazin-1-yl)-2-(benzhydrylsulfinyl)ethanone] | 1230 | 970
COCC1CN(C(=O)COC(c2ccccc2)c2ccccc2)CCN1C(c1ccccc1)c1ccccc1 (stereo not shown) [Compound 54, 2-(benzhydryloxy)-1-(4-benzhydryl-3-methoxymethylpiperazin-1-yl)ethanone] | 330 | 210
COCC1CN(C(=O)C[S+]([O-])C(c2ccccc2)c2ccccc2)CCN1C(c1ccccc1)c1ccccc1 (stereo not shown) [Compound 56, 1-(4-benzhydryl-3-methoxymethylpiperazin-1-yl)-2-(benzhydrylsulfinyl)ethanone] | 180 | 130
